According to US20100266541A1, “METHODS AND AGENTS FOR […] IMMUNE RESPONSE” (priority 2006, published 2010):
Square brackets hold non-standard residues; d marks the D form. Peptide text beside a SMILES is read from it. * marks the point of attachment. Sta = CC(C)C[C@H](N)[C@@H](O)CC(=O)O; Isovaleryl = CC(C)CC(=O)*

Legend:
[1] = system: MDAMC cells stably transfected with GFP-LC3; conditions: CQ-treated versus untreated cells
Procedure: MDAMC cells stably transfected with GFP-LC3 were fixed for 1 h at RT with 4% paraformaldehyde (PFA, Electron Microscopy Sciences) in 0.25 M Hepes, pH 7.4, followed by overnight fixation at 4° C. in 8% PFA/Hepes. Cells were washed 1× in PBS, quenched with 0.1 M NH4Cl in PBS for 10 min, scraped into 1% gelatin in PBS and then embedded in 5% gelatin in PBS. Small pieces of the gelatin pellets were infiltrated overnight at 4° C. with 2.3 M sucrose in PBS, mounted onto cryospecimen pins and frozen in liquid nitrogen. […] After quenching with 0.1 M NH4Cl in PBS for 10 min, the grids were incubated for 20 min in a solution of 1% fish skin gelatin (FSG, Sigma-Aldrich) in PBS. They were then labeled with rabbit anti-HLA-DR antiserum C6861 (a gift from Peter Cresswell, Yale University, New Haven, Conn.) in PBS-FSH for 30 min at RT, washed 4× in PBS and then incubated with 10 or 15 nm protein A-gold (purchased from the Department of Cell Biology, University of Utrecht, Netherlands). After 4 more washes in PBS, grids were fixed in 1% glutaraldehyde in PBS for 5 min at RT, washed 5× in PBS and again quenched with 0.1 M NH4Cl in PBS for 10 min. The same labeling procedure was repeated with a rabbit anti-GFP antibody (Invitrogen-Molecular Probes, Carlsbad, Calif.) and after final fixation in 1% glutaraldehyde, grids were washed 8× in HPLC-grade water.

MDAMC cells = assay: Colocalization of GFP-LC3 with compartment markers by confocal microscopy in MDAMC cells; assay type: cell-based, human
[2] = system: GFP-LC3 labeled autophagosomes; assay type: cell-based, human; set-up: accumulation of GFP-LC3-labeled autophagosomes: dose or concentration left out as unconfirmed
LC3-II = LC3-II accumulation by anti-LC3 Western blotting; assay type: cell-based, human; conditions: for LC3-II accumulation, density quantification of Western blots: 10 hours of CQ-treatment; for LC3-II accumulation (Western blot, words): 10 hours; for effect on LC3-II levels and hence macroautophagy: 293T, HaCat and MDAMC, 24 h, 1000 U/ml
Procedure: Cells were lysed in ice cold lysis buffer (50 mM Tris-HCl pH 8.0, 140 mM NaCl, 1 mM DTT, 1.5 mM MgCl2, 0.5% NP-40 with Complete protease inhibitor cocktail, Roche, Indianapolis, Ind.) for 5 mim on ice (about 10^6 cells/100 μl). Whole cells and cell debris were pelleted by low speed centrifugation (400 g, 3 mil) and cleared supernatants were transferred to a new tube. Protein concentration was determined by BCA protein assay (Pierce, Rockford, Ill.). […] Primary antibodies were visualized with HRP-conjugated goat anti-rabbit IgG (Biorad, Hercules; CA) and the ECLplus detection system (Amersham Biosciences, UK).
This also allowed for extension of the analysis from epithelial cell lines to MHC class II-positive cell types that are more difficult to transfect, such as B cell lines and primary monocytes/dendritic cells. The fact that autophagosome-associated LC3 (called LC3-II) and free cytosolic LC3 (called LC3-I) can be distinguished by their apparent molecular weights in SDS-PAGE gel electrophoresis (16 and 18 lcD, respectively) was used, since it can be quantified separately in anti-LC3 Western blots.

immature DCs = conditions: 10 hr of CQ treatment
atg12 = assay: Knockdown of atg12 by siRNA in MDAMC cells; assay type: cell-based, human
Excerpt: The following 21-nt siRNA oligos were used:
Atg12 antisense: 5′-[…]dT (SEQ ID NO:6; nt. 687-705 of NM_004707). As a control, lamin A/Cspecific siRNA from Dharmacon (Lamin sense: 5′-CUGGACUUCCAGAAGAACAdTdT (SEQ ID NO:7); Lamin antisense: 5′-UGUUCUUCUGGAAGUCCAGdTdT (SEQ ID NO:8) or firefly luciferase-specific siRNA (GL2 sense: 50-CGUACGCGGAAUACUUCGAdTdT; SEQ ID NO:9; GL2 antisense: 5′-UCGAAGUAUUCCGCGUACGdTdT; SEQ ID NO:10) was used. siRNA duplexes were delivered by transfection with lipofectamine 2000 (Invitrogen) at 30 pmol siRNA+[…] lipofectamine/well in a 24-well format, and effect of knockdown was analyzed after 2-3 days.

[3] = MDAMC cells, CQ 50 μM, E64 28 μM, Leupeptin 40 μM and Pepstatin A 15 μM together

CCN(CC)CCCC(C)Nc1ccnc2cc(Cl)ccc12 (stereo not drawn) [chloroquine]
frequency of GFP-LC3/MHC class II double-labeled multivesicular compartments [1]: found much more frequently
HLA-DM colocalization with GFP-LC3, LSM510 histogram tool (MDAMC cells; IFNγ-treated MDAMC, after chloroquine treatment (38 untreated)): 45%
MHC class II colocalization with GFP-LC3, LSM510 histogram tool (MDAMC cells; IFNγ-treated MDAMC, after chloroquine treatment (40 untreated)): 44%
HLA-DM+ vesicles colocalized with GFP-LC3, LSM 510 profile tool (MDAMC cells; IFNγ-treated MDAMC, after chloroquine treatment (52 untreated)): 71%
MHC class II+ compartments colocalized with GFP-LC3, LSM 510 profile tool (MDAMC cells; IFNγ-treated MDAMC, after chloroquine treatment (58 untreated)): 86%
EEA1 colocalization with GFP-LC3, histogram analysis (MDAMC cells; MDAMC, after chloroquine treatment (7% untreated)): 21%
EEA1 colocalization with GFP-LC3, profile analysis (MDAMC cells; MDAMC, after chloroquine treatment (9% untreated)): 26%
accumulation of GFP-LC3-labeled autophagosomes ([2]; B-LCL, immature and mature DCs, chloroquine for 10 hr): strongly accumulated
accumulation of GFP-LC3 in cytosolic vesicles ([2]; HaCat, HeLa, MDAMC, 293 cell lines, 10 hours of CQ-treatment): strongly accumulated in cytosolic vesicles
LC3-II accumulation, density quantification of Western blots (LC3-II; 293 cells): 30 fold
onset of increase of cellular LC3-II levels (LC3-II; HaCat cell line, time course): already increased 1 hour after CQ-treatment
LC3-II accumulation, density quantification of Western blots (LC3-II; HaCat cells): 5 fold
LC3-II accumulation, density quantification of Western blots (LC3-II; MDAMC cells): 5 fold
LC3-II accumulation (Western blot, words) (LC3-II; [3]): strong accumulation of LC3-II
LC3-II accumulation (Western blot, words) (LC3-II; epithelial and B cell lines, CD14+ monocytes, dendritic cells): strongly accumulated
MHC class II-labeled compartments positive for GFP-LC3 (immature DCs): 41% (±7%)

IFNγ: Recombinant human IFNγ
formation of MHC class II positive compartments (MDAMC cells; human epithelial cell lines, IFNγ treatment): induced the formation of MHC class II positive compartments
effect on LC3-II levels and hence macroautophagy (LC3-II): not affected

CC(C)CC(=O)N[C@H](C(=O)N[C@H](C(=O)N[C@@H](CC(C)C)[C@@H](O)CC(=O)N[C@@H](C)C(=O)N[C@@H](CC(C)C)[C@@H](O)CC(=O)O)C(C)C)C(C)C [Pepstatin A] (Isovaleryl-VV[Sta]A[Sta]-OH)
LC3-II accumulation (Western blot, words) (LC3-II; [3]): strong accumulation of LC3-II

ATG12 siRNA: 21-nt siRNA duplex against atg12, SEQ ID NO: 5 and 6 (nt. 687-705 of NM_004707) (chain 1 UCAACUUGCUACUACAUGAUDT; chain 2 UCAUGUAGUAGCAAGUUGAUDT; chemistry not fully specified; listed as Homo sapiens)
accumulation of GFP-LC3+ vesicles upon CQ treatment after knockdown (atg12; MDAMC cells stably expressing GFP-LC3, 2 days after transfection, CQ 6 hr): completely abrogates accumulation of these vesicles
colocalization of MP1-LC3-containing vesicles with MHC class II compartments after knockdown (atg12; MDAMC cells stably expressing MP1-LC3, IFNγ 200 U/ml, 50 μM chloroquine last 6 hours): completely abrogated

IFN-α
effect on LC3-II levels and hence macroautophagy (LC3-II): not affected

CC(=O)N[C@@H](CC(C)C)C(=O)N[C@@H](CC(C)C)C(=O)N[C@H](C=O)CCCNC(=N)N [Leupeptin]
LC3-II accumulation (Western blot, words) (LC3-II; [3]): strong accumulation of LC3-II

CC(C)C[C@H](NC(=O)[C@H]1O[C@@H]1C(=O)O)C(=O)NCCCCN=C(N)N [E64]
LC3-II accumulation (Western blot, words) (LC3-II; [3]): strong accumulation of LC3-II
